≈ marks a conversion by molar mass, not a printed value. Results filed as inconclusive are left out. Calls of active or inactive are those of the source. No rule for the calls is given here.
System: M. tuberculosis H37Rv growth inhibition
Assay: Mycobacterium tuberculosis H37Rv growth inhibition, cell based, confirmatory dose response (AID 1949);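 also: bacteria grown 7 days with compound before Alamar blue readout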

Clc1ccc(C2=CC(c3ccc(Cl)cc3)n3nnnc3N2)cc1 (centres undefined)
IC50: 2.07 µg/mL (≈ 6.01 µM)

COc1ccc(Br)cc1C(=O)Nc1ccc(N2CCN(C)CC2)cc1
IC50: 12.6 µg/mL (≈ 31.1 µM)

Cc1ccc2[nH]c3c(c2c1)CCCC3NCC(O)Cc1ccccc1 (centres undefined)
IC50: 6.03 µg/mL (≈ 18 µM)

Cc1cc(-n2c(C)cc(/C=C3\NC(=O)NC3=O)c2C)ccc1Br
IC50: 8.38 µg/mL (≈ 22.4 µM)

O=c1c2ccccc2nc(CSc2ncnc3ccccc23)n1-c1ccc(Cl)c(Cl)c1
IC50: > 50 µg/mL (inactive)

COc1ccc(CN2CCC(N(CCc3ccccc3)Cc3ccccc3)CC2)c(OC)c1
IC50: 2.61 µg/mL (≈ 5.87 µM)

Cc1cc(C)c(OCCCCNCc2ccccc2)c(Cl)c1
IC50: 5.18 µg/mL (≈ 16.3 µM)

O=C(Cc1ccc(Cl)cc1)Oc1cccc2cccnc12
IC50: > 50 µg/mL (inactive)

COc1ccccc1OCCCCN1CCN(C(c2ccccc2)c2ccccc2)CC1
IC50: 8.02 µg/mL (≈ 18.6 µM)

CCc1ccc(C(=O)NC(=S)Nc2ccc(C(=O)OC)cc2)cc1
IC50: 3.98 µg/mL (≈ 11.6 µM)

CCCCOc1ccc(C(=O)NC23CC4CC(CC(C4)C2)C3)cc1
IC50: 4.33 µg/mL (≈ 13.2 µM)

CCNS(=O)(=O)c1ccc(NC(=O)Nc2cccc(C(F)(F)F)c2)cc1
IC50: 7.85 µg/mL (≈ 20.3 µM)

O=C(CCc1ccccc1)NC1C2CC3CC(C2)CC1C3 (centres undefined)
IC50: 3.08 µg/mL (≈ 10.9 µM)

COc1cc(CNc2nccs2)cc(Br)c1OCc1ccc(F)cc1
IC50: 11.5 µg/mL (≈ 27.1 µM)

O=C(Nc1cccc([N+](=O)[O-])c1)N1CCN(Cc2ccc(Cl)cc2Cl)CC1
IC50: 5.06 µg/mL (≈ 12.4 µM)

Cc1cccc(NC(=O)c2cc3cc([N+](=O)[O-])ccc3oc2=O)c1
IC50: > 50 µg/mL (inactive)

COc1ccc2nc(C)cc(Nc3ccccc3O)c2c1
IC50: 8.28 µg/mL (≈ 29.5 µM)

Cc1cc(C(=O)NCC23CC4CC(CC(C4)C2)C3)ccc1[N+](=O)[O-]
IC50: 0.42 µg/mL (≈ 1.28 µM)

O=c1cc(-c2ccccc2)[nH]n1-c1ccc([N+](=O)[O-])cc1
IC50: 10.8 µg/mL (≈ 38.5 µM)

Cc1cccc(C(C)(C)C)c1OCCOCCn1ccnc1
IC50: 3.97 µg/mL (≈ 13.1 µM)

CCCc1cc(C(N)=O)c(NC(=O)c2ccoc2C)s1
IC50: 4.4 µg/mL (≈ 15 µM)

N#C/C(=C\C=C\c1ccco1)c1nc2c(s1)CCCC2
IC50: 9.33 µg/mL (≈ 33 µM)

O=C(CSc1n[nH]c(-c2ccc(Cl)cc2)n1)Nc1ccc(F)c(Cl)c1
IC50: 39 µg/mL (≈ 98.2 µM)

COc1ccc2c(c1)CC1=C2CCC2(C)C1=CCC2OC(C)=O (centres undefined)
IC50: 21.6 µg/mL (≈ 69.8 µM)

Cc1cc(C)nc(/N=C(\N)Nc2cc(Cl)ccc2Cl)n1
IC50: 12.3 µg/mL (≈ 39.7 µM)

CC1(C)CC(=O)C2=C(C1)NC(Nc1nc3ccccc3o1)=NC2c1cccc(Br)c1 (centres undefined)
IC50: 3.24 µg/mL (≈ 6.96 µM)

COc1cccc2c(C)nc(Nc3nc4ccccc4c(=O)[nH]3)nc12
IC50: > 50 µg/mL (inactive)

Cc1ccc(C(=O)NC(=S)N(C)Cc2ccccc2)cc1
IC50: 2.53 µg/mL (≈ 8.48 µM)

COC(=O)C(C)Oc1ccc2c(=O)c(-c3ccc(Br)cc3)c(C)oc2c1 (centres undefined)
IC50: 2.42 µg/mL (≈ 5.8 µM)

Cc1ccc(Cl)cc1NC(=O)CC(O)(C(F)(F)F)C(F)(F)F
IC50: 7.04 µg/mL (≈ 20.1 µM)

O=C(OCc1ccc(S(=O)(=O)c2ccccc2)cc1)c1ccccc1Br
IC50: 8.37 µg/mL (≈ 19.4 µM)

CC(C)Cc1nc2sc3c(c2c(=O)o1)CCCCC3
IC50: 5.69 µg/mL (≈ 20.5 µM)

Cc1ccc(C(=O)Nc2cc(C#N)c3[nH]c4ccccc4n3c2=O)cc1
IC50: 6.55 µg/mL (≈ 19.1 µM)

Cc1cc2c(cc1C)N(Cc1ccc(C(C)(C)C)cc1)C1=NCCCN12
IC50: 1.2 µg/mL (≈ 3.45 µM)

Cc1ccc(Cl)c(OCC(O)Cn2cnc3cc(C)c(C)cc32)c1 (centres undefined)
IC50: 8.12 µg/mL (≈ 23.5 µM)

CC(=O)Oc1ccccc1C(=O)Nc1ccc(Br)cc1Cl
IC50: 4.23 µg/mL (≈ 11.5 µM)

O=c1c2c(-c3ccc(Cl)cc3)csc2nc2c3ccccc3c(NCCN3CCOCC3)nn12
IC50: 11.2 µg/mL (≈ 22.8 µM)

Cc1cc(OC(=O)c2ccco2)c2c3c(c(=O)oc2c1)CCCC3
IC50: 23.4 µg/mL (≈ 72 µM)

COc1ccccc1NC(=O)C1=C(C)NC(SCC(=O)Nc2ccccc2[N+](=O)[O-])=C(C#N)C1c1ccccc1F (centres undefined)
IC50: 12 µg/mL (≈ 21 µM)

O=C(Nc1ccc(Cc2ccncc2)cc1)c1ccc(-c2cccc(C(F)(F)F)c2)o1
IC50: 12 µg/mL (≈ 28.5 µM)

CC(C)(C)c1cc(Cl)c(O)c(NC(=S)NC(=O)c2ccc(Cl)cc2)c1
IC50: < 0.1 µg/mL

CCC(C)NCCCOc1ccc(Cl)c2ccccc12 (centres undefined)
IC50: 2.06 µg/mL (≈ 7.06 µM)

COc1cccc(-n2nnnc2S(C)(=O)=O)c1
IC50: 1.16 µg/mL (≈ 4.56 µM)

CCOc1cc(CNC(C)C23CC4CC(CC(C4)C2)C3)cc(Cl)c1OCC(=O)NC(C)(C)C (centres undefined)
IC50: 3.06 µg/mL (≈ 6.41 µM)

O=[N+]([O-])/C=C/c1cccn1-c1ccc(F)cc1
IC50: 7.57 µg/mL (≈ 32.6 µM)

CCN(CC)c1ccc(NC(=S)Nc2ccc(F)c(Cl)c2)cc1
IC50: 7.64 µg/mL (≈ 21.7 µM)

O=C(Nc1nc2ccc(F)cc2s1)c1ccc([N+](=O)[O-])o1
IC50: 5.11 µg/mL (≈ 16.6 µM)

O=C(Nc1ccc(N2CCN(Cc3ccccc3)CC2)cc1)c1cccc(Cl)c1Cl
IC50: 4.51 µg/mL (≈ 10.2 µM)

CCOc1cc2c3c(c1)C1(C(=O)N3C(C)(C)C=C2C)C(C#N)=C(N)Oc2cc(O)ccc21 (centres undefined)
IC50: 3.09 µg/mL (≈ 7.19 µM)

COc1ccc(-c2nnc(SCC(=O)Nc3ccc([N+](=O)[O-])cc3)o2)cc1
IC50: 0.64 µg/mL (≈ 1.66 µM)

CCOC(=O)Cc1nc2cc(Cl)ccc2o1
IC50: 10.4 µg/mL (≈ 43.5 µM)

Cc1cc2ncn(Cc3ccc(C(C)C)cc3)c2cc1C
IC50: 0.91 µg/mL (≈ 3.27 µM)

Cc1cc(OCCn2ccnc2)cc(C(C)C)c1
IC50: 7.45 µg/mL (≈ 30.5 µM)

Cc1ccc(/C=C/[N+](=O)[O-])cc1Br
IC50: 239 µg/mL (≈ 987 µM)

O=C(CSc1ccc(Br)cc1)Nc1ccccc1F
IC50: 1.6 µg/mL (≈ 4.7 µM)

O=C(CSc1nnc(-c2cccnc2)o1)c1ccc(Oc2ccccc2)cc1
IC50: > 50 µg/mL (inactive)

Cc1cc(Br)c2[nH]c(O)c(N=NC(=O)COc3ccccc3C)c2c1
IC50: 18.7 µg/mL (≈ 46.4 µM)

COC(=O)CSc1nnc(SCc2ccc(OC)cc2)s1
IC50: 2.28 µg/mL (≈ 6.66 µM)

CN(C)C(=O)CSc1cccc2cccnc12
IC50: 6.25 µg/mL (≈ 25.4 µM)
